Laboratory results published in the supplement of paper PMC8253809.

Experiments:
SUDIPGXIX [1] = diffuse intrinsic pontine glioma line; assay: EC50 (inflection of fitted growth-inhibition curve) (log10 M)
Summary of the method: (§1)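 Patient-derived pHGG/DIPG cell lines and astrocyte controls were plated in 384-well plates coated with 1% Geltrex and dosed by pin tool with a 10-point threefold dilution series (mean top concentration 35 μM), in triplicate. Cells were exposed for 7 days (3 days for iAstro) at 37 °C and 5% CO2. CellTiter-Glo luminescence was log2-transformed, normalised per plate to % activity between negative (solvent) and positive control wells, and pooled. EC50 and maximal response (yFin) were taken from whichever three- or four-parameter log-logistic fit had the lowest AICc.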

SUDIPGXXI [2] = diffuse intrinsic pontine glioma line; assay: as above
Summary of the method: as §1

iAstro [3] = astrocyte control; assay: as above
Summary of the method: as §1

SUDIPGXIX [4] = assay: maximal growth inhibition (yFin) relative to DMSO / staurosporine; higher = more efficacious
Summary of the method: as §1

SUDIPGXXI [5] = assay: as above
Summary of the method: as §1

iAstro [6] = assay: as above
Summary of the method: as §1

DIPGX29 [7] = H3.3 K27M diffuse intrinsic pontine glioma line; assay: area under dose-response curve of % growth inhibition (log2 RLU vs DMSO / staurosporine), 1e-11 to 1e-4 M (% x log10 M); higher = more growth inhibition
Summary of the method: (§2)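 Patient-derived pHGG/DIPG cell lines and astrocyte controls were grown on 1% Geltrex-coated 384-well plates and exposed to a 10-point threefold dilution series (mean top concentration 35 μM), in triplicate. Exposure was 7 days (iAstro 3 days) at 37 °C, 5% CO2. CellTiter-Glo luminescence was log2-transformed and normalised per plate to % activity between solvent and positive controls. Area under the curve was taken by trapezoid rule from the fitted log-logistic curve, or from a smoothing spline when the sigmoid fit failed.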

DIPGX37 [8] = H3.3 K27M diffuse intrinsic pontine glioma line; assay: as above
Summary of the method: as §2

DIPGX7 = H3.3 K27M diffuse intrinsic pontine glioma line; assay: as above
Summary of the method: as §2

DIPGX9 = diffuse intrinsic pontine glioma line; assay: as above
Summary of the method: as §2

HABS = astrocyte control; assay: as above
Summary of the method: as §2

HGGX2 = paediatric high-grade glioma line; assay: as above
Summary of the method: as §2

HGGX39 [9] = paediatric high-grade glioma line; assay: as above
Summary of the method: as §2

HGGX42 = H3.3 G34R paediatric high-grade glioma line; assay: as above
Summary of the method: as §2

HGGX6 [10] = H3.3 G34R paediatric high-grade glioma line; assay: as above
Summary of the method: as §2

SUDIPGIV = diffuse intrinsic pontine glioma line; assay: as above
Summary of the method: as §2

SUDIPGVI = diffuse intrinsic pontine glioma line; assay: as above
Summary of the method: as §2

SUDIPGXIII = diffuse intrinsic pontine glioma line; assay: as above
Summary of the method: as §2

SUDIPGXIX [11] = assay: as above
Summary of the method: as §2

SUDIPGXVII = diffuse intrinsic pontine glioma line; assay: as above
Summary of the method: as §2

SUDIPGXXI [12] = assay: as above
Summary of the method: as §2

iAstro [13] = assay: as above
Summary of the method: as §2

DIPGX29 [14] = assay: EC50 (inflection of fitted growth-inhibition curve) (log10 M)
Summary of the method: as §1

DIPGX29 [15] = assay: maximal growth inhibition (yFin) relative to DMSO / staurosporine; higher = more efficacious
Summary of the method: as §1

DIPGX37 [16] = assay: EC50 (inflection of fitted growth-inhibition curve) (log10 M)
Summary of the method: as §1

HGGX39 [17] = assay: as above
Summary of the method: as §1

HGGX6 [18] = assay: as above
Summary of the method: as §1

DIPGX37 [19] = assay: maximal growth inhibition (yFin) relative to DMSO / staurosporine; higher = more efficacious
Summary of the method: as §1

HGGX39 [20] = assay: as above
Summary of the method: as §1

HGGX6 [21] = assay: as above
Summary of the method: as §1

SMILES | EC50 (log10 M) (SUDIPGXIX [1]) | EC50 (log10 M) (SUDIPGXXI [2]) | EC50 (log10 M) (iAstro [3]) | maximal growth inhibition (SUDIPGXIX [4]) [%] | maximal growth inhibition (SUDIPGXXI [5]) [%] | maximal growth inhibition (iAstro [6]) [%] | area under dose-response curve (DIPGX29 [7]) | area under dose-response curve (DIPGX37 [8]) | area under dose-response curve (DIPGX7) | area under dose-response curve (DIPGX9) | area under dose-response curve (HABS) | area under dose-response curve (HGGX2) | area under dose-response curve (HGGX39 [9]) | area under dose-response curve (HGGX42) | area under dose-response curve (HGGX6 [10]) | area under dose-response curve (SUDIPGIV) | area under dose-response curve (SUDIPGVI) | area under dose-response curve (SUDIPGXIII) | area under dose-response curve (SUDIPGXIX [11]) | area under dose-response curve (SUDIPGXVII) | area under dose-response curve (SUDIPGXXI [12]) | area under dose-response curve (iAstro [13]) | EC50 (log10 M) (DIPGX29 [14]) | maximal growth inhibition (DIPGX29 [15]) [%] | EC50 (log10 M) (DIPGX37 [16]) | EC50 (log10 M) (HGGX39 [17]) | EC50 (log10 M) (HGGX6 [18]) | maximal growth inhibition (DIPGX37 [19]) [%] | maximal growth inhibition (HGGX39 [20]) [%] | maximal growth inhibition (HGGX6 [21]) [%]
COc1ccc(Cn2ccc3ccc(C(=O)NO)cc32)cc1 | -4.78 | -4.78 | -4.67 | 31.4 | 117 | 47.6 | 24.9 | 30.6 | 20.3 | 19.1 | 11.9 | 14.8 | 10.3 | 25.8 | 5.76 | 6.64 | 2.84 | 30.1 | 24.5 | 7.72 | 91.2 | 47 |  |  |  |  |  |  |  | 
CO[C@H]1C(=O)[C@]2(C)[C@@H](OC)C[C@H]3OC[C@@]3(OC(C)=O)[C@H]2[C@H](OC(=O)c2ccccc2)[C@]2(O)C[C@H](OC(=O)[C@H](O)[C@@H](NC(=O)OC(C)(C)C)c3ccccc3)C(C)=C1C2(C)C [CABAZITAXEL] |  |  |  |  |  |  | 71.3 | 119 | 68.4 | 141 | 147 | 156 | 123 | 102 | 78.2 | 255 | 37.8 | 29.9 | 120 | 50.5 | 515 | 79.4 |  |  |  |  |  |  |  | 
CC(C)[C@H]1C(=O)N[C@@H](CCCNC(=N)N)C(=O)NCC(=O)N[C@@H](CC(=O)O)C(=O)N[C@H](Cc2ccccc2)C(=O)N1C [CILENGITIDE] |  |  |  |  |  |  | 10.1 | 4.08 | 15.6 | 8.99 | 3.86 | 8.33 | 4.22 | 11.4 | 2.93 | 4.77 | 0 | 0 | 0 | 4.38 | 1.67 | 0 |  |  |  |  |  |  |  | 
CC(C)(C)c1nc(-c2cccc(NS(=O)(=O)c3c(F)cccc3F)c2F)c(-c2ccnc(N)n2)s1 [DABRAFENIB] |  |  |  |  |  |  | 3.8 | 11.5 | 20.8 | 3.09 | 19.7 | 0 | 25.7 | 7.39 | 21.9 | 18.7 | 2.65 | 0.214 | 0 | 3.63 | 13.7 | 3.65 |  |  |  |  |  |  |  | 
CCN(c1cc(-c2ccc(CN3CCOCC3)cc2)cc(C(=O)NCc2c(C)cc(C)[nH]c2=O)c1C)C1CCOCC1 [EPZ-6438] |  |  |  |  |  |  | 4.38 | 0 | 5.15 | 0 | 12.9 | 0 | 1.99 | 0 | 0 | 9.17 | 0 | 2.24 | 0.349 | 4.66 | 6.79 | 5.32 |  |  |  |  |  |  |  | 
CC12CC3CC(C)(C1)CC(N)(C3)C2 [MEMANTINE] |  | -4.68 |  |  | 32.5 |  | 3.62 | 1.76 | 13.8 | 1.54 | 2.39 | 2.91 | 0.964 | 0.942 | 2.25 | 6.14 | 0 | 0 | 1.83 | 1.91 | 21.5 | 0.365 |  |  |  |  |  |  |  | 
N[C@H]1C[C@@H]1c1ccc(-c2cccc(O)c2)cc1 [OG-L002] | -6.55 |  |  | 87.2 |  |  | 67.6 | 78.6 | 138 | 24.4 | 7.06 | 81.6 | 78.2 | 100 | 51.3 | 174 | 3.43 | 0 | 222 | 103 | 7.31 | 35.4 |  |  |  |  |  |  |  | 
O=C([C@@H](Cc1cccc(C(F)(F)F)c1)NS(=O)(=O)c1cc(F)c2c(c1)CCNC2)N1CCCC1 [PFI-2] |  | -4.58 |  |  | 24.8 |  | 14 | 0.851 | 4.47 | 0 | 5.29 | 6.57 | 4.9 | 0 | 5.68 | 4.77 | 8.26 | 1.68 | 0 | 3.09 | 14.4 | 6.82 | -4.51 | 27.5 |  |  |  |  |  | 
CCOC(=O)c1ccc(C#Cc2ccc3c(c2)C(C)(C)CCS3)nc1 [TAZAROTENE] |  | -5.98 | -4.78 |  | 107 | 21.6 | 10.3 | 19.5 | 5.61 | 25.9 | 0 | 12.3 | 27.7 | 11.6 | 15.5 | 45.5 | 0 | 14.7 | 0 | 12.6 | 230 | 17 |  |  |  |  |  |  |  | 
O=C(CCCCCCC(=O)Nc1ccc([C@H]2O[C@@H](CSc3nc(-c4ccccc4)c(-c4ccccc4)o3)C[C@@H](c3ccc(CO)cc3)O2)cc1)NO [TUBACIN] |  | -4.84 | -4.6 |  | 51.8 | 29.5 | 8.41 | 3.94 | 22.1 | 5.5 | 4.17 | 3.24 | 4.96 | 0 | 0 | 0.838 | 1.17 | 0 | 8.78 | 1.78 | 43.2 | 17 |  |  |  |  |  |  |  | 
COc1cc2nc(N3CCCC3)nc(NCCCCCN3CCCC3)c2cc1OC [UNC0379] |  |  |  |  |  |  | 70.8 | 75.1 |  |  |  |  | 69.3 |  | 73.6 |  |  |  |  |  |  |  | -4.88 | 71.8 | -5.05 | -4.89 | -4.91 | 71.5 | 72.1 | 70.1
COc1cc2c(NC3CCN(C(C)C)CC3)nc(N3CCC(F)(F)CC3)nc2cc1OCCCN1CCCC1 [UNC0642] |  |  |  |  |  |  | 71.3 | 96 |  |  |  |  | 62.5 |  | 75.5 |  |  |  |  |  |  |  | -4.96 | 74.9 | -5.19 | -4.84 | -5.05 | 70.6 | 74.9 | 72.8
CCCc1cc(C)[nH]c(=O)c1CNC(=O)c1cc(-c2ccc(N3CCN(C(C)C)CC3)nc2)cc2c1cnn2C(C)C [UNC1999] |  |  |  |  |  |  | 75 | 85.9 |  |  |  |  | 70.2 |  | 83.6 |  |  |  |  |  |  |  | -5.02 | 73.8 | -5.18 | -4.92 | -5.11 | 73.8 | 76.4 | 72.5
COc1cc2/c(=N/c3ccc(Br)cc3F)nc[nH]c2cc1OCC1CCN(C)CC1 [VANDETANIB] |  |  |  |  |  |  | 68.7 | 65.1 |  |  |  |  | 60.3 |  | 54.2 |  |  |  |  |  |  |  | -4.74 | 80.7 | -4.7 | -4.75 | -4.7 | 80.9 | 80.4 | 77.1
C[C@]1(c2nc3c(C(N)=O)cccc3[nH]2)CCCN1 [VELIPARIB] |  | -4.72 |  |  | 99.9 |  | 0 | 0 | 1.28 | 6.96 | 3.94 | 1.41 | 0 | 0 | 0 | 6.66 | 0 | 0 | 7.71 | 9.93 | 100 | 7.64 |  |  |  |  |  |  |  | 
CS(=O)(=O)c1ccc(C(=O)Nc2ccc(Cl)c(-c3ccccn3)c2)c(Cl)c1 [VISMODEGIB] |  | -4.83 |  |  | 34.8 |  | 6.39 | 7.51 | 5.14 | 2.06 | 0 | 1.06 | 11.1 | 0.511 | 11.3 | 6.55 | 0 | 2.44 | 0 | 7.7 | 28.8 | 25.8 |  |  |  |  |  |  |  | 
O=C(CCCCCCC(=O)Nc1ccccc1)NO [VORINOSTAT] |  |  |  |  |  |  | 77.5 | 58.2 |  |  |  |  | 60.1 |  | 83.9 |  |  |  |  |  |  |  | -4.98 | 74.2 | -4.65 | -4.71 | -4.68 | 68 | 64.3 | 76.9
O=c1ncccn1[C@@H]1O[C@H](CO)[C@@H](O)[C@H]1O [ZEBULARINE] |  |  |  |  |  |  | 5.5 | 19.9 | 17.7 | 11.6 | 4.92 | 20 | 2.92 | 15.7 | 2.58 | 12 | 13.2 | 32.2 | 5.55 | 7.86 | 15.3 | 6.4 |  |  |  |  |  |  |  | 
